According to article PMC10919040, “Exploration of newly synthesized azo-thiohydantoins as the potential alkaline phosphatase inhibitors via advanced biochemical characterization and molecular modeling approaches” (BMC Chemistry, 2024):

target: intestinal alkaline phosphatase (IAP) (Bos taurus, UniProt P19111); test: Alkaline phosphatase inhibition assay (spectrophotometric, p-NPP substrate); assay type: biochemical, calf; settings: p-NPP 0.5 mM, pH 9.5, 37 °C, Mean ± SEM
Experimental: The measurement of intestinal alkaline phosphatase (IAP) activity was conducted using a spectrophotometric method, as described earlier. […] Additionally, 10 µL of the compound was added to the mixture. The mixture was subjected to pre-incubation with 5 µL of IAP (0.025 U/mL) for a duration of 10 min. The reaction was started by introducing 10 µL of the substrate, which was 0.5 mM p-NPP (para nitrophenyl phosphate disodium salt). Following the addition, the assay underwent an incubation period of 30 min at a temperature of 37 °C. The change in absorbance resulting from the release of p-nitrophenolate was monitored at a wavelength of 405 nm using a Thermo Scientific™ Multiskan GO™ microplate reader. The experiment was repeated three times, with each repetition being done in triplicate. […] The calculation of inhibition activity and IC50 values were carried out as discussed earlier.

Sequence of intestinal alkaline phosphatase (IAP) (P19111 20-533): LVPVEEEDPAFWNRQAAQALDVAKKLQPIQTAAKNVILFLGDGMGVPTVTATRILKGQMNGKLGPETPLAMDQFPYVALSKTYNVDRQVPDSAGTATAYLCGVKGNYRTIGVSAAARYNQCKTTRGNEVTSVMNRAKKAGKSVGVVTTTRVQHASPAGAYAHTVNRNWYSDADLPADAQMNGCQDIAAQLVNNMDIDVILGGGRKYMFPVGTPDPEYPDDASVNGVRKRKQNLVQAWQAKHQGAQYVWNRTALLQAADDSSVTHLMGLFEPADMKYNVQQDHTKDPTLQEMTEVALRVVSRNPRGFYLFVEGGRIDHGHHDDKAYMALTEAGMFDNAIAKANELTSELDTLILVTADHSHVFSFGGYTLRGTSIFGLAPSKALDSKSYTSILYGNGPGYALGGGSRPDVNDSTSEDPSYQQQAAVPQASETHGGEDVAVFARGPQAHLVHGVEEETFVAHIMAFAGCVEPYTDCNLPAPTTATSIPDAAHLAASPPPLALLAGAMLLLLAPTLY

IC50 [µM] | Structure (SMILES)
1.28 ± 0.214 | O=C1CNC(=S)N1/N=C/c1cc(/N=N/c2ccc(S(=O)(=O)O)cc2)ccc1O [Compound 7b, 4-((E)-(4-hydroxy-3-((E)-((5-oxo-2-thioxoimidazolidin-1-yl)imino)methyl)phenyl)-diazenyl)benzenesulfonic acid]
3.15 ± 0.853 | Cc1c(Cl)cccc1/N=N/c1ccc(O)c(/C=N/N2C(=O)CNC2=S)c1 [Compound 7d, 3-((E)-(5-((E)-(3-chloro-2-methylphenyl)diazenyl)-2-hydroxybenzylidene)amino)-2-thioxoimidazolidin-4-one]
3.07 ± 0.687 | O=C1CNC(=S)N1/N=C/c1cc(/N=N/c2cccc(Cl)c2Cl)ccc1O [Compound 7c, 3-((E)-(5-((E)-(2,3-dichlorophenyl)diazenyl)-2-hydroxybenzylidene)amino)-2 thioxoimidazolidin-4-one]
80.2 ± 1.1 | N[C@@H](Cc1ccccc1)C(=O)O [L–Phenyl alanine, reference compound]
0.308 ± 0.065 | O=C(O)c1ccc(/N=N/c2ccc(O)c(/C=N/N3C(=O)CNC3=S)c2)cc1 [Compound 7e, 4-((E)-(4-hydroxy-3-((E)-((5-oxo-2-thioxoimidazolidin-1-yl)imino)methyl)phenyl)diazenyl)benzoic acid]
4.85 ± 0.985 | O=C1CNC(=S)N1/N=C/c1cc(/N=N/c2ccccc2)ccc1O [Compound 7a, 3-((E)-(2-hydroxy-5-((E)-phenyldiazenyl)benzylidene)amino)-2-thioxoimidazolidin-4-one]
0.836 ± 0.097 | O=C1CNC(=S)N1/N=C/c1cc(/N=N/c2ccc([N+](=O)[O-])cc2)ccc1O [Compound 7f, 3-((E)-(2-hydroxy-5-((E)-(4-nitrophenyl)diazenyl)benzylidene)amino)-2-thioxoimidazolidin-4-one]

tested on: not given; test: not given; settings: not given

melting point [°C] | Structure (SMILES)
271 to 273 | O=C1CNC(=S)N1/N=C/c1cc(/N=N/c2ccc([N+](=O)[O-])cc2)ccc1O [Compound 7f, 3-((E)-(2-hydroxy-5-((E)-(4-nitrophenyl)diazenyl)benzylidene)amino)-2-thioxoimidazolidin-4-one]
